The nature of data set [1]: Aqueous humor pharmacokinetics after topical bimatoprost (study PK10130). In kind it is in vivo. As to conditions: dog; topical bimatoprost 0.03% QD; LLOQ 0.200 ng/mL (AGN-192024).
Data set [2] in a line: Systemic pharmacokinetics after topical bimatoprost (study PK-98-119). It is filed as in vivo. As to conditions: human; topical bimatoprost 0.03% QD.
Data set [3] is described as follows: Systemic pharmacokinetics after topical bimatoprost (study 6177-110). In kind it is in vivo. As to conditions: monkey, blood, LLOQ 0.100 ng/mL (AGN-191522).
The nature of data set [4]: Systemic pharmacokinetics after intracameral Bimatoprost SR Gen 1 (study TX09051). In kind it is in vivo. The note with it: monkey; intracameral 30 μg (Gen 1).
The conditions of data set [5]: human; topical bimatoprost 0.03% QD; cited from earlier work.
Data set [6] concerns prostaglandin (PG) sensitive receptors. The note with it: cited from earlier work.
Data set [7] is described as follows: Ocular pharmacokinetics after topical bimatoprost (study PK-98-003). It is filed as in vivo. As to conditions: monkey; topical bimatoprost 0.1% QD.
Data set [8] is described as follows: Systemic pharmacokinetics after intracameral Bimatoprost SR (study TX12102). In kind it is in vivo. The note with it: dogs; intracameral Bimatoprost SR 10, 15 & 20 μg; blood; LLOQ 0.025 ng/mL (AGN-192024), 0.05 ng/mL (AGN-191522).
Data set [9] in a line: Ocular pharmacokinetics after topical bimatoprost (study PK-97-032). It is filed as in vivo. The note with it: monkey; topical bimatoprost 0.1% BID.
A further data set has as its system glaucoma patients. Kind of data set: Phase 1/2 prospective 24-month paired-eye clinical trial of BimSR (Example 1). In kind it is in vivo, human. As to conditions: month 24, topical bimatoprost solution 0.03% once a day. The protocol: A phase 1/2, prospective, 24-month, paired-eye clinical trial was conducted in 75 glaucoma patients with study eye baseline mean TOP of 25.2 (range 22-36) mmHg after washout. An intraocular implant having the composition as described in US Patent Publication No. 2015-0118279 as formulation 2, as described in TABLE 1 of the specification (6, 10, 15, or 20 μg dose strength) was administered intracamerally in the study eye; the fellow eye was treated with topical bimatoprost solution 0.03% once a day. Long-term TOP-lowering effect was assessed by TOP, time to additional TOP-lowering treatment, and percentage of patients without additional TOP-lowering treatment. Patients were permitted rescue topical medication or a single repeat treatment with BimSR. Results are presented for the 10 and 15 μg dose strengths of BimSR (n=21 for each) that are continuing in development.
Up to 4 and 6 months, 95.2% and 66.7% of patients, respectively, were controlled on the initial BimSR 10 or 15 μg treatment without need for rescue medication or implant retreatment. The median time to additional TOP-lowering treatment after BimSR administration was 38-39 weeks.
A single administration of BimSR 10 or 15 μg controlled TOP up to 6 months in 66.7% of patients and 23.8% of patients at 24 months.

Each structure is given as a SMILES string. Read-outs that look alike come from different tables or passages of the source.

Turning to `O=C(O)CCC/C=C\C[C@@H]1[C@@H](/C=C/[C@@H](O)CCc2ccccc2)[C@H](O)C[C@@H]1O` [AGN-191522, bimatoprost acid], the “Aqueous Humor Concentration” value in data set [1] is 2.0 ng/mL; in data set [5], 8.55 ng/mL. For the same compound, the “Systemic Concentration” value is listed as 2.41 ng/mL in [2], “BLQ^e” in [3] (topical bimatoprost 0.03% QD), “BLQ^e” in data set [3] (topical bimatoprost 0.1% BID) and 0.165 ng/mL in [4].

In the case of `CCNC(=O)CCC/C=C\C[C@@H]1[C@@H](/C=C/[C@@H](O)CCc2ccccc2)[C@H](O)C[C@@H]1O` [AGN-192024, bimatoprost], the “interaction with prostaglandin (PG) sensitive receptors” value in data set [6] is given as “no meaningful interaction”. In addition, the “Aqueous Humor Concentration” value is given as 34.5 ng/mL in [7], “BLQ^d” in data set [1], 13.0 ng/mL in [9] and 2.37 ng/mL in data set [5]. In addition, the “Tissues Concentration Cornea” value was determined as 558 ng/g in data set [7] and 2890 ng/g in data set [9]. The “Tissues Concentration ICB” value turned out to be 797 ng/g in [7] and 1369 ng/g in data set [9]. For the same compound, the “Systemic Concentration” value in data set [2] is listed as 0.0822 ng/mL; in data set [3] (topical bimatoprost 0.03% QD), 0.397 ng/mL; in data set [3] (topical bimatoprost 0.1% BID) it was 1.92 ng/mL; in [8], “BLQ^a”; in data set [4], 0.280 ng/mL. The “mean (SD) TOP (intraocular pressure)” value in the data set on glaucoma patients (fellow eyes of BimSR 10 μg group) is listed as 16.4 (2.1) mmHg; in the data set with glaucoma patients (fellow eyes of BimSR 15 μg group), 15.4 (2.4) mmHg.
